Laboratory results taken from patent US9675614B2, “PRMT5 inhibitors and uses thereof” (Epizyme, Inc., priority 2012, dated 2017).

Target: PRMT5/MEP50 (Homo sapiens (Human), UniProt O14744)
Experiment: PRMT5 Biochemical Assay (PRMT5/MEP50 enzyme assay on peptide substrate, 3H-SAM Flashplate)
Details: PRMT5/MEP50 biochemical assay; read-out: Biochemical IC50
Text: S-adenosylmethionine (SAM), S-adenosylhomocysteine (SAH), bicine, KCl, Tween20, dimethylsulfoxide (DMSO), bovine skin gelatin (BSG), and Tris(2-carboxyethyl)phosphine hydrochloride solution (TCEP) were purchased from Sigma-Aldrich at the highest level of purity possible. ^3H-SAM was purchase from American Radiolabeled Chemicals with a specific activity of 80 Ci/mmol. 384-well streptavidin Flashplates were purchased from PerkinElmer.
Peptide representative of human histone H4 residues 1-15 was synthesized with a C-terminal linker-affinity tag motif and a C-terminal amide cap by 21st Century Biochemicals. […] The sequence was Ac-[…][K-Biot]amide (SEQ ID NO.:3).
Full-length human MEP50 (NM_024102) clone was amplified from a human testis cDNA library incorporating a 5′ sequence encoding a 6-histidine tag (MHHHHHH) (SEQ ID NO.:5) fused directly to Arg 2 of MEP50. The amplified genes were subcloned into pENTR/D/TEV (Life Technologies) and subsequently transferred by Gateway™ attL×attR recombination to pDEST8 baculvirus expression vector (Life Technologies).
Recombinant baculovirus and Baculovirus-Infected Insect Cells (BIIC) were generated according to Bac-to-Bac kit instructions (Life Technologies) and Wasilko, 2006, respectively. Protein over-expression was accomplished by infecting exponentially growing Spodoptera frugiperda (SF9) cell culture at 1.2×10^6 cell/ml with a 5000 fold dilution of BIIC stock. Infections were carried out at 27° C. for 72 hours, harvested by centrifugation, and stored at −80° C. for purification.
Flag-PRMT5/6His-MeP50 was eluted with 300 mM Imidazole in the same buffer. […] Reference: Wasilko, D. J. and S. E. Lee: “TIPS: titerless infected-cells preservation and scale-up” Bioprocess J., 5 (2006), pp. 29-32.
General Procedure for PRMT5/MEP50 Enzyme Assays on Peptide Substrates.
The assays were all performed in a buffer consisting of 20 mM Bicine (pH=7.6), 1 mM TCEP, 0.005% BSG, and 0.002% Tween20, prepared on the day of use. Compounds in 100% DMSO (1 ul) were spotted into a polypropylene 384-well V-bottom plates (Greiner) using a Platemate Plus outfitted with a 384-channel head (Thermo Scientific). DMSO (1 ul) was added to Columns 11, 12, 23, 24, rows A-H for the maximum signal control and 1 ul of SAH, a known product and inhibitor of PRMT5/MEP50, was added to columns 11, 12, 23, 24, rows I-P for the minimum signal control. A cocktail (40 ul) containing the PRMT5/MEP50 enzyme and the peptide was added by Multidrop Combi (Thermo-Fisher). The compounds were allowed to incubate with PRMT5/MEP50 for 30 min at 25 degrees Celsius, then a cocktail (10 ul) containing ^3H-SAM was added to initiate the reaction (final volume=51 ul). The final concentrations of the components were as follows: PRMT5/MEP50 was 4 nM, ^3H-SAM was 75 nM, peptide was 40 nM, SAH in the minimum signal control wells was 100 uM, and the DMSO concentration was 1%. The assays were stopped by the addition of non-radioactive SAM (10 ul) to a final concentration of 600 uM, which dilutes the ^3H-SAM to a level where its incorporation into the peptide substrate is no longer detectable. 50 ul of the reaction in the 384-well polypropylene plate was then transferred to a 384-well Flashplate and the biotinylated peptides were allowed to bind to the streptavidin surface for at least 1 hour before being washed three times with 0.1% Tween20 in a Biotek ELx405 plate washer. The plates were then read in a PerkinElmer TopCount plate reader to measure the quantity of ^3H-labeled peptide bound to the Flashplate surface, measured as disintegrations per minute (dpm) or alternatively, referred to as counts per minute (cpm).
[formula] Where dpm=disintegrations per minute, cmpd=signal in assay well, and min and max are the respective minimum and maximum signal controls.
[formula] Where top and bottom are the normally allowed to float, but may be fixed at 100 or 0 respectively in a 3-parameter fit.

Chain of PRMT5/MEP50 (O14744 other isoform, or with tags, fused parts or gaps): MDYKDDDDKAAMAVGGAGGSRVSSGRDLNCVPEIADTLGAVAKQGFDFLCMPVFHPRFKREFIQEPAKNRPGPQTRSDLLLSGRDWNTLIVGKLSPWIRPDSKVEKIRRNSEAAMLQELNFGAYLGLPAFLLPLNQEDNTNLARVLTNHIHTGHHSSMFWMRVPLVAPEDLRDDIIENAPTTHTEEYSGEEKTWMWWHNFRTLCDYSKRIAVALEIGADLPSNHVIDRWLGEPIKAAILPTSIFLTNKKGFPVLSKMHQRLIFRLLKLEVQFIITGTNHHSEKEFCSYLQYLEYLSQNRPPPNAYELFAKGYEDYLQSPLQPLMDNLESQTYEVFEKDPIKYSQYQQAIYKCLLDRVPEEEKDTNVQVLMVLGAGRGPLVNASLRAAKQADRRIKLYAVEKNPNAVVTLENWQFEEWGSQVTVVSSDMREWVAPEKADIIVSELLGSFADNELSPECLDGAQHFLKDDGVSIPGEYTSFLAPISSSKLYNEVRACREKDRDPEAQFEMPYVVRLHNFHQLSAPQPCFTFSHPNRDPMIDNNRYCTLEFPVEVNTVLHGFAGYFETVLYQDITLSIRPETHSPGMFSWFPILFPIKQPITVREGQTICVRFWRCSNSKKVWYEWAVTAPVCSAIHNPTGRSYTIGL
Chain of PRMT5/MEP50 (Q9BQA1 other isoform, or with tags, fused parts or gaps partner): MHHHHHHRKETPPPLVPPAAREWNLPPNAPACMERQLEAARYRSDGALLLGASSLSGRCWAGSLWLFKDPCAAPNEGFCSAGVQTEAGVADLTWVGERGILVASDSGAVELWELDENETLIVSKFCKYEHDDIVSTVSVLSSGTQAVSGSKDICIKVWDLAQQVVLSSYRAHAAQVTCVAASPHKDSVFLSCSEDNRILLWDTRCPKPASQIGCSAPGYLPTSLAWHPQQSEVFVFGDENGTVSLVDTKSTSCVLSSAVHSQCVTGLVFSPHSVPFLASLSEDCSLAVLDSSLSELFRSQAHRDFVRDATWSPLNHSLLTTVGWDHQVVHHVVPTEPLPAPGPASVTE

Compound | IC50 [nM]
O=C(NC[C@H](O)CN1CCc2ccccc2C1)c1ccc2[nH]cnc2c1 [Compound 294] | 101 to 1000
O=C(NC[C@@H](O)CN1CCc2ccccc2C1)c1cccc(NC2CCOCC2)c1 [Compound 43] | 101 to 1000
O=C(NCC(O)CN1CCc2ccccc2C1)c1nccc(NC2CCOCC2)n1 (stereo not shown) [Compound 76] | 101 to 1000
O=C(NC[C@@H](O)CN1CCc2ccccc2C1)c1ccccc1 [Compound 4] | 1000 to 10000
O=C(NCC(O)CN1CCc2ccccc2C1)c1cccc(CO)c1 (stereo not shown) [Compound 151] | 101 to 1000
Cn1nc(C(=O)NCC(O)CN2CCc3ccccc3C2)cc1NC1CCOCC1 (stereo not shown) [Compound 312] | 101 to 1000
CN(CC(O)CN1CCc2ccccc2C1)C(=O)c1cccc(NC2CCOCC2)c1 (stereo not shown) [Compound 71] | 101 to 1000
COc1ccc2cc(C(=O)NCC(O)CN3CCc4ccccc4C3)ccc2n1 (stereo not shown) [Compound 155] | 101 to 1000
CN(CCNc1cc(C(=O)NC[C@H](O)CN2CCc3ccccc3C2)ccn1)S(C)(=O)=O [Compound 262] | < 100
CC1CC(Nc2cccc(C(=O)NC[C@@H](O)CN3CCc4ccccc4C3)c2)CC(C)O1 (stereo partly shown) [Compound 153] | < 100
NC(=O)CNCCOc1cccc(C(=O)NCC(O)CN2CCc3ccccc3C2)c1 (stereo not shown) [Compound 222] | < 100
O=C(NC[C@H](O)CN1CCc2ccccc2C1)c1nccc2ccccc12 [Compound 272] | < 100
CN1CCN(c2cccc(C(=O)NCC(O)CN3CCc4ccccc4C3)c2)CC1 (stereo not shown) [Compound 36] | < 100
CS(=O)(=O)N1CCN(Cc2cccc(C(=O)NCC(O)CN3CCc4ccccc4C3)c2)CC1 (stereo not shown) [Compound 91] | < 100
O=C(NCC(O)CN1CCc2ccccc2C1)c1ccc2c(c1)OCCN2 (stereo not shown) [Compound 88] | 101 to 1000
CC(c1cccc(C(=O)NCC(O)CN2CCc3ccccc3C2)c1)N1CCN(C)CC1 (stereo not shown) [Compound 161] | < 100
O=C(NC[C@H](O)CN1CCc2ccccc2C1)c1cccc(NC2CCN(CC(F)(F)F)CC2)c1 [Compound 217] | < 100
COc1ccc2cc(C(=O)NC[C@H](O)CN3CCc4ccccc4C3)ccc2c1 [Compound 251] | < 100
CS(=O)(=O)N1CCC(Nc2cc(C(=O)NC[C@H](O)CN3CCc4ccccc4C3)ncn2)C1 (stereo partly shown) [Compound 257] | < 100
Cc1c(NC2CCOCC2)cccc1C(=O)NCC(O)CN1CCc2ccccc2C1 (stereo not shown) [Compound 40, N-(3-(3,4-dihydroisoquinolin-2(1H)-yl)-2-hydroxypropyl)-2-methyl-3-((tetrahydro-2H-pyran-4-yl)amino)benzamide] | < 100
O=C(NC[C@H](O)CN1CCc2ccccc2C1)c1ccc2ncccc2c1 [Compound 220] | < 100
CC(=O)N1CCC(Nc2cc(C(=O)NC[C@H](O)CN3CCc4ccccc4C3)ccn2)C1 (stereo partly shown) [Compound 228] | < 100
O=C(NC[C@H](O)CN1CCc2ccccc2C1)c1ccc2[nH]nnc2c1 [Compound 305] | 101 to 1000
O=C(NCC(O)CN1CCc2ccccc2C1)c1ccnc(NC2CCOCC2)n1 (stereo not shown) [Compound 62] | < 100
Cc1ccc(NC2COC2)cc1C(=O)NCC(O)CN1CCc2ccccc2C1 (stereo not shown) [Compound 97] | < 100
Cc1ncc(NC2CCNC2)cc1C(=O)NC[C@H](O)CN1CCc2ccccc2C1 (stereo partly shown) [Compound 310] | 101 to 1000
O=C(NCC(O)CN1CCc2ccccc2C1)c1cccc(NC2CCOC2)c1 (stereo not shown) [Compound 45, N-(3-(3,4-dihydroisoquinolin-2(1H)-yl)-2-hydroxypropyl)-3-((tetrahydrofuran-3-yl)amino)benzamide] | < 100
CS(=O)(=O)N1CCC(Nc2ccc(C(=O)NCC(O)CN3CCc4ccccc4C3)cc2)CC1 (stereo not shown) [Compound 141] | < 100
CN(C[C@H](O)CN1CCc2ccccc2C1)C(=O)c1cccc(NC2CCOCC2)c1 [Compound 111] | < 100
O=C(NC[C@H](O)CN1CCc2ccccc2C1)c1cccc(NC2CCOCC2)c1 [Compound 44, (S)—N-(3-(3,4-dihydroisoquinolin-2(1H)-yl)-2-hydroxypropyl)-3-((tetrahydro-2H-pyran-4-yl)amino)benzamide] | < 100

The remaining lines, values ahead:

IC50 [nM] | Compound
< 100 | Cn1nccc1Nc1cc(C(=O)NC[C@H](O)CN2CCc3ccccc3C2)ccn1 [Compound 325]
< 100 | O=C(NC[C@H](O)CN1CCc2ccccc2C1)c1ccc(OC2CCN(Cc3ccccc3)CC2)cc1 [Compound 330]
< 100 | CS(=O)(=O)N1CCC(Nc2cc(C(=O)NC[C@H](O)CN3CCc4ccccc4C3)ccn2)CC1 [Compound 225]
< 100 | CS(=O)(=O)N1CCC(Nc2cc(C(=O)NC[C@H](O)CN3CCc4ccccc4C3)ncn2)CC1 [Compound 297]
< 100 | O=C(NC[C@H](O)CN1CCc2ccccc2C1)c1ccnc(NCc2cccnc2)c1 [Compound 190]
< 100 | CC(=O)N1CCC(Oc2ccc(C(=O)NCC(O)CN3CCc4ccccc4C3)cc2)C1 (stereo not shown) [Compound 197]
< 100 | CN(c1cc(C(=O)NC[C@H](O)CN2CCc3ccccc3C2)ccn1)C1CCOCC1 [Compound 324]
< 100 | O=C(NC[C@H](O)CN1CCc2ccccc2C1)c1cncc(OC2CCNCC2)c1 [Compound 260]
< 100 | O=C(NC[C@H](O)CN1CCc2ccccc2C1)c1ccc2c(c1)CCCC2 [Compound 247]
< 100 | O=C(NC[C@H](O)CN1CCc2ccccc2C1)c1cc(NC2CN(CC(F)(F)F)C2)ncn1 [Compound 282]
< 100 | CC(=O)N1CCN(Cc2cccc(C(=O)NCC(O)CN3CCc4ccccc4C3)c2)CC1 (stereo not shown) [Compound 100]
< 100 | CCOC(=O)CN1CCN(Cc2cccc(C(=O)NCC(O)CN3CCc4ccccc4C3)c2)CC1 (stereo not shown) [Compound 165]
< 100 | CN(CCN(C)S(C)(=O)=O)c1cc(C(=O)NC[C@H](O)CN2CCc3ccccc3C2)ccn1 [Compound 263]
< 100 | NC(=O)CN1CCN(Cc2cccc(C(=O)NCC(O)CN3CCc4ccccc4C3)c2)CC1 (stereo not shown) [Compound 172]
< 100 | O=C(NC[C@H](O)CN1CCc2ccccc2C1)c1cc2c(F)cccc2[nH]1 [Compound 296]
< 100 | CN(C)C(=O)CCCN1CCN(Cc2cccc(C(=O)NCC(O)CN3CCc4ccccc4C3)c2)CC1 (stereo not shown) [Compound 194]
< 100 | CN(C)CCOc1cccc(C(=O)NCC(O)CN2CCc3ccccc3C2)c1 (stereo not shown) [Compound 28, N-(3-(3,4-dihydroisoquinolin-2(1H)-yl)-2-hydroxypropyl)-3-(2-(dimethylamino)ethoxy)benzamide]
< 100 | O=C(NC[C@H](O)CN1CCc2ccccc2C1)c1ccc2c(c1)OCO2 [Compound 244]
< 100 | CC(=O)N1CCC(Oc2cccc(C(=O)NCC(O)CN3CCc4ccccc4C3)c2)C1 (stereo not shown) [Compound 136]
< 100 | O=C(NC[C@H](O)CN1CCc2ccccc2C1)c1ccccc1 [Compound 3, (S)—N-(3-(3,4-dihydroisoquinolin-2(1H)-yl)-2-hydroxypropyl)benzamide]
< 100 | O=C(NCC(O)CN1CCc2ccccc2C1)c1ccnc(NC2CCOCC2)c1 (stereo not shown) [Compound 74]
< 100 | O=C(NC[C@H](O)CN1CCc2ccccc2C1)c1csc2ccccc12 [Compound 248]
< 100 | CC(=O)N1CCC(Oc2cc(C(=O)NC[C@H](O)CN3CCc4ccccc4C3)ncn2)CC1 [Compound 287]
< 100 | C[C@H]1COCCC1Nc1cccc(C(=O)NC[C@H](O)CN2CCc3ccccc3C2)c1 (stereo partly shown) [Compound 213]
< 100 | O=C(NCC(O)CN1CCc2ccccc2C1)c1cccc(NC2CCOCC2O)c1 (stereo not shown) [Compound 98]
